In brackets after ≈: the same amount, converted by molar mass. Several values for one entry are separate records, joined by “and”; a condition that tells them apart may be missing. Equal values may be shown once. Read-outs that look alike come from different tables or passages of the source. Positions of bridges follow the written chain, without caps; N, C: chain ends. Non-standard residues stand in square brackets, D forms with d. Residues, ends and D or L forms follow the SMILES beside them. No end group written: not given here. *: point of attachment. X1 = CC[C@H](C)CCCCC(=O)*; Dab = NCC[C@H](N)C(=O)O
Assays:
M. smegmatis membrane = test: Bacterial cytoplasmic membrane depolarization assay, DiSC3(5); format: cell-based, Mycobacterium smegmatis
Description: Membrane depolarization assay was studied using DiSC3(5) as previously reported. Depolarization of a membrane can be visualized by a […] in fluorescence. After interaction with intact cytoplasmic membrane, the fluorescent probe DiSC3(5) was quenched. After incubation with the antimicrobial peptide, the membrane potential was lost, and the probe was released to the medium, ensuing in an increase of fluorescence that can be quantified and monitored as a function of time. In brief, enumerated frozen bacteria were pelleted and washed twice in phosphate buffer (pH 7.2) and then resuspended to 4 × 10^7 CFU/mL in phosphate buffer containing 50 μg/mL DiSC3(5). Then, 100 uLs of this suspension was added to wells of a black 96-well plate. The plate was incubated in a TECAN Safire2 spectrofluorometer and monitored until fluorescence leveled off. Next, 100 μLs of various concentrations of peptide in phosphate buffer (pH 7.2) were added to each well. Bacteria without peptide and peptide without bacteria served as controls. The plate was immediately returned to the spectrofluorometer. Readings were taken every 15 s for 5 min (excitation = 622 nm; emission = 670 nm).
Figure 1 Membrane depolarization activity by LL-37, mCRAMP, hBD3-Pep4, ATRA-1A, ATRA-2, and NA-CATH. Depolarization determined using DiSC3(5) (50 μg/mL) at multiple concentrations of peptide (50, 25, 5, and 0.5 μg/mL). […]

M. smegmatis mc^2155 [1] = system: M. smegmatis mc^2155
Description: (§1) The antimicrobial activity for each peptide was determined through 3 h incubation time. The appropriate dilutions of each well were plated in triplicate and the extent of killing for the peptides were determined.
(§2) Briefly, 1 × 10^5 CFU per well of bacteria were incubated with different peptide concentrations in a 50 μL solution of Buffer Q consisting of 10 mM potassium phosphate buffer at pH 7.2 and 0.1% MB7H9 (3 h, 37 °C). Serial dilutions were then prepared in Buffer Q and plated in triplicate on MB7H9 plates, which were incubated (37 °C, 24 to 48 h) and CFUs counted. […] EC50 values were determined by plotting percent killing as a function of the log of peptide concentration (log μg/mL), and fitting the data from the antimicrobial assays to a standard sigmoidal dose-response curve, using Equation (1), where Y corresponds to bacterial killing (%) at a given peptide concentration (μg/mL), with X being the logarithm of that concentration (log μg/mL). In the equation, “Top” and “Bottom” refer to the upper and lower boundaries, and were constrained to values <100% and >0%, respectively.

M. smegmatis [2] = conditions: for MIC: 48 h
M. smegmatis [3] = conditions: for MIC Alone / MIC Combined (antibiotic): checkerboard; for MIC Alone: 37 °C, about 10^5 CFU/mL, single agent; for FIC (peptide) / FIC (antibiotic): MIC in combination/MIC alone; for FICI: FICI ≤ 0.5 synergy, 0.5-1.0 additive, 1.0-4.0 indifferent, > 4.0 antagonism
M. tuberculosis [4] = conditions: 100 μg/mL of peptide; cited from earlier work
M. tuberculosis [5] = conditions: LL-37 ref 30; hBD3 ref 33; cited from earlier work
Description: While the EC50 experiments are typically carried out in 10 mM phosphate buffer with pH 7.2 for 3 h, the Minimal Inhibitory Concentration (MIC) is determined in bacterial broth (resulting in a higher salt concentration) with a 48 h incubation. We confirmed the sensitivity of M. smegmatis to common antibiotics such as polymyxin B, rifampicin, and fosmidomycin [35, 36, 37]. […] The reported MIC of full-length hBD ...

M. smegmatis [6] = system: M. smegmatis; design: method as in earlier work; conditions: 10 μg/mL of LL-37; ref 9 (Sonawane et al.); cited from earlier work
M. smegmatis [7] = test: Ethidium bromide uptake assay (membrane permeation); conditions: 50 μg/mL peptide, 10 μM ethidium bromide, examined at 20 min, 37 °C, n = 3, Figure 2
Description: Bacterial cytoplasmic membrane permeation is monitored by using the ethidium bromide uptake assay. […] M. smegmatis is grown until log phase in MB7H9 (Difco) broth with 2% (w/v) glucose as the carbon source, and 0.05% (v/v) Tween 80 in a shaking incubator (37 °C). Bacteria is centrifuged, washed with PBS, and then adjusted to an OD 600 nm of 0.1 Phosphate Buffer. 180 μL of bacteria is added to 10 μL ethidium bromide (10 μM final concentration) and 10 μL peptide in various concentrations, the experiment was performed in triplicate. The plate is read in a Tecan Safire^2 spectrofluorometer every 2 min for 30 min at 37 °C: (excitation = 540 nm, emission = 590 nm). Peak RFU at 20 min is used in Figure 2, and values were analyzed against wells with no peptide treatment with a Student’s t-test.
Permeablization of membrane after 20 min was compared. Experiments were performed in triplicate (n = 3).

M. smegmatis mc^2155 [8] = test: microbe, parasite or virus in culture; conditions: Mycolicibacterium smegmatis, MC^2155, 3 h
Description: as §1, §2

M. smegmatis [9] = test: microbe, parasite or virus in culture; conditions: Mycolicibacterium smegmatis, 48 h
M. smegmatis [10] = test: microbe, parasite or virus in culture; conditions: Mycolicibacterium smegmatis, 72 h, read-out: MIC Alone
[11] = cited from earlier work
[12] = from EC50 in μM, above 1 = more potent than rifampicin
[13] = same assay as μg/mL value, 3 h, 10 mM phosphate buffer
[14] = from MIC in μM, above 1 = less potent than rifampicin
[15] = in combination with polymyxin B
[16] = peptide combined with polymyxin B

Molecule: CC[C@H](C)[C@H](NC(=O)[C@H](CCCCN)NC(=O)[C@H](CCC(=O)O)NC(=O)[C@H](CCCCN)NC(=O)[C@H](CO)NC(=O)[C@H](CCCCN)NC(=O)[C@H](CCCNC(=N)N)NC(=O)[C@H](Cc1ccccc1)NC(=O)[C@H](Cc1ccccc1)NC(=O)[C@H](CC(=O)O)NC(=O)CNC(=O)[C@H](CC(C)C)NC(=O)[C@@H](N)CC(C)C)C(=O)NCC(=O)N[C@@H](CCCCN)C(=O)N[C@@H](CCC(=O)O)C(=O)N[C@@H](Cc1ccccc1)C(=O)N[C@@H](CCCCN)C(=O)N[C@@H](CCCNC(=N)N)C(=O)N[C@H](C(=O)N[C@H](C(=O)N[C@@H](CCC(N)=O)C(=O)N[C@@H](CCCNC(=N)N)C(=O)N[C@H](C(=O)N[C@@H](CCCCN)C(=O)N[C@@H](CC(=O)O)C(=O)N[C@@H](Cc1ccccc1)C(=O)N[C@@H](CC(C)C)C(=O)N[C@@H](CCCNC(=N)N)C(=O)N[C@@H](CC(N)=O)C(=O)N[C@@H](CC(C)C)C(=O)N[C@H](C(=O)N1CCC[C@H]1C(=O)N[C@@H](CCCNC(=N)N)C(=O)N[C@H](C(=O)N[C@@H](CCC(=O)O)C(=O)N[C@@H](CO)C(=O)O)[C@@H](C)O)C(C)C)[C@@H](C)CC)C(C)C)[C@@H](C)CC [LL-37]
- Membrane depolarization (M. smegmatis membrane; DiSC3(5) 50 μg/mL, within 1 min, peptide 50, 25, 5 and 0.5 μg/mL, phosphate buffer pH 7.2, n = 6, Figure 1): > 70%
- Lowest concentration that depolarizes the M. smegmatis membrane (M. smegmatis membrane; DiSC3(5), p < 0.001): ≤ 0.5 µg/mL
- EC50 (M. smegmatis mc^2155 [1]; 1 × 10^5 CFU per well, 10 mM potassium phosphate buffer pH 7.2 with 0.1% MB7H9, 3 h, 37 °C, CFU plated in triplicate, sigmoidal fit): 0.27 µg/mL
- Fold vs. Rifampicin (M. smegmatis mc^2155 [1]; [12]): 2.65
- EC50 (M. smegmatis mc^2155 [1]; [13]): 60 nM
- Fold vs. Rifampicin (μM) (M. smegmatis [2]; [14]): 0.85
- MIC Alone (M. smegmatis [3]; 72 h): 31.3 µg/mL
- FIC (peptide) (M. smegmatis [3]; [15]): 0.12
- FIC (peptide) (M. smegmatis [3]; in combination with rifampicin): 0.12
- FICI (M. smegmatis [3]; [16]): 0.37
- Killing of M. tuberculosis (M. tuberculosis [4]): 65%
- MIC against M. tuberculosis (M. tuberculosis [5]): 5 µg/mL (≈ 1.11 µM)
- Intracellular killing (M. smegmatis [6]): 50%
- Extent of permeabilization (ethidium bromide uptake) (M. smegmatis [7]): very efficient

Molecule: CC[C@H](C)CCCCC(=O)N[C@@H](CCN)C(=O)N[C@H](C(=O)N[C@@H](CCN)C(=O)N[C@H]1CCNC(=O)[C@H]([C@@H](C)O)NC(=O)[C@H](CCN)NC(=O)[C@H](CCN)NC(=O)[C@H](CC(C)C)NC(=O)[C@@H](Cc2ccccc2)NC(=O)[C@H](CCN)NC1=O)[C@@H](C)O [Polymyxin B] (X1-[Dab]T[Dab][Dab][Dab][dF]L[Dab][Dab]T; lactam 4-C (inferred); N-terminus assumed)
- Fold vs. Rifampicin (M. smegmatis mc^2155 [1]): 1.65
- EC50 (M. smegmatis mc^2155 [1]; mc^2155, 3 h): 96 nM
- Fold vs. Rifampicin (μM) (M. smegmatis [2]): 1.26
- MIC (M. smegmatis [2]): 5.99 µM (≈ 7.21 µg/mL)
- MIC Alone (M. smegmatis [3]; 72 h): 7.8 µg/mL

Molecule: CO[C@H]1/C=C/O[C@@]2(C)Oc3c(C)c(O)c4c(O)c(c(/C=N/N5CCN(C)CC5)c(O)c4c3C2=O)NC(=O)/C(C)=C\C=C\[C@H](C)[C@H](O)[C@@H](C)[C@@H](O)[C@@H](C)[C@H](OC(C)=O)[C@@H]1C [Rifampicin]
- Fold vs. Rifampicin (M. smegmatis mc^2155 [1]; [12]): 1.0
- Fold vs. Rifampicin (μM) (M. smegmatis [2]; [14]): 1
- MIC Combined (antibiotic) (M. smegmatis [3]; in combination with ATRA-1A, 72 h): 1.95 µg/mL
- MIC Combined (antibiotic) (M. smegmatis [3]; in combination with LL-37, 72 h): 0.97 µg/mL
- MIC Combined (antibiotic) (M. smegmatis [3]; in combination with hBD3-Pep4, 72 h): 1.95 µg/mL
- MIC Combined (antibiotic) (M. smegmatis [3]; in combination with mCRAMP, 72 h): 0.97 µg/mL
- FIC (antibiotic) (M. smegmatis [3]; in combination with ATRA-1A): 0.5
- FIC (antibiotic) (M. smegmatis [3]; in combination with LL-37): 0.25
- FIC (antibiotic) (M. smegmatis [3]; in combination with hBD3-Pep4): 0.5
- FIC (antibiotic) (M. smegmatis [3]; in combination with mCRAMP): 0.25
- EC50 (M. smegmatis mc^2155 [8]): 159 nM
- EC50 (M. smegmatis mc^2155 [8]; pH 7.2): 0.13 µg/mL
- MIC (M. smegmatis [9]): 3.9 µg/mL and 4.73 µM
- MIC (M. smegmatis [10]): 3.9 µg/mL (≈ 4.74 µM)

Molecule: GLLRKGGEKIGEKLKKIGQKIKNFFQKLVPQPEQ [mCRAMP]
- EC50 (M. smegmatis mc^2155 [1]; mc^2155, 3 h): 44 nM
- MIC (M. smegmatis [2]): 4.02 µM
- Hemolytic activity [11]: no hemolytic activity

Molecule: O=CN(O)CCCP(=O)(O)O [Fosmidomycin]
- Fold vs. Rifampicin (M. smegmatis mc^2155 [1]; [12]): 0.20
- Fold vs. Rifampicin (μM) (M. smegmatis [2]; [14]): 0.39
- EC50 (M. smegmatis mc^2155 [8]): 780 nM
- EC50 (M. smegmatis mc^2155 [8]; pH 7.2): 0.14 µg/mL

Molecule: KRAKKFFKKLK-NH2 [ATRA-1A]
- EC50 (M. smegmatis mc^2155 [1]; [13]): 35 nM
- FIC (peptide) (M. smegmatis [3]; [15]): 0.12
- FICI (M. smegmatis [3]; [16]): 0.37
- FICI (M. smegmatis [3]; peptide combined with rifampicin): 0.56
- Hemolysis ([11]; compared to PBS (pH 7)): did not elicit statistically significant hemolysis

Molecule: RGRRSSRRKK-NH2 [hBD3-Pep4]
- EC50 (M. smegmatis mc^2155 [1]; mc^2155, 3 h): 287 nM
- MIC (M. smegmatis [2]): 48.65 µM

— publication PMC4790291, “Short, Synthetic Cationic Peptides Have Antibacterial Activity against Mycobacterium smegmatis by Forming Pores in Membrane and Synergizing with Antibiotics” (Antibiotics, 2015)
